Measurements as given in PubChem BioAssay (NCI).
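Where inhibition never reached the appropriate level, the endpoint shown equals the highest concentration tested. Otherwise, values were interpolated linearly from a five-concentration, 48-hour dose response in 96-well plates. At the GI50, growth is halved. TGI: total growth inhibition.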

Assays:
Assay in all cases: NCI anticancer screen, dose series, 48 h
SF-539 CNS = test system: SF-539 CNS
DU-145 prostate = test system: DU-145 prostate
SK-OV-3 ovarian = test system: SK-OV-3 ovarian
HCT-116 colon = test system: HCT-116 colon
CCRF-CEM leukemia = test system: CCRF-CEM leukemia
HCC-2998 colon = test system: HCC-2998 colon
NCI/ADR-RES ovarian = test system: NCI/ADR-RES ovarian
K-562 leukemia = test system: K-562 leukemia
MDA-N = test system: MDA-N
A498 renal = test system: A498 renal
MDA-MB-435 = test system: MDA-MB-435

Structure (SMILES)	TGI (SF-539 CNS)	TGI (DU-145 prostate)	TGI (SK-OV-3 ovarian)	TGI (HCT-116 colon)	TGI (CCRF-CEM leukemia)	TGI (HCC-2998 colon)	TGI (NCI/ADR-RES ovarian)	TGI (K-562 leukemia)	TGI (MDA-N)	TGI (A498 renal)	TGI (MDA-MB-435)	GI50 (SF-539 CNS)
C#C[C@]1(O)CC[C@H]2[C@@H]3CCc4cc(OC(=O)c5cccc6cc7ccccc7nc56)ccc4[C@H]3CC[C@@]21C	> 100 µM	78.9 µM	> 100 µM	80.1 µM	> 100 µM	> 100 µM	> 100 µM	> 100 µM	89.3 µM	> 100 µM	> 100 µM	–
CSc1ccc(/C=C2\N=C(c3ccccc3)N(c3nc4ccc(Sc5ccccc5)cc4[nH]3)C2=O)cc1	32.5 µM	70.7 µM	60.8 µM	48.5 µM	86.8 µM	38.2 µM	72.3 µM	66.4 µM	18 µM	62 µM	16.1 µM	15 µM
COc1ccc(N=C(Nc2ccc(OC)cc2)C(=Nc2ccc(OC)cc2)Nc2ccc(OC)cc2)cc1	> 100 µM	> 100 µM	> 100 µM	> 100 µM	> 100 µM	> 100 µM	> 100 µM	> 100 µM	> 100 µM	> 100 µM	> 100 µM	–
O=C(CC(C(=O)c1ccoc1)c1ccco1)c1ccco1 (stereo unspecified)	> 100 µM	> 100 µM	> 100 µM	> 100 µM	> 100 µM	> 100 µM	> 100 µM	> 100 µM	> 100 µM	> 100 µM	> 100 µM	–
CCOC(=O)CCC(NC(=O)c1ccc(N2CCN(c3c(C)nc(N)nc3N)CC2)cc1)C(=O)OCC (stereo unspecified)	> 100 µM	> 100 µM	> 100 µM	> 100 µM	4.9 µM	> 100 µM	> 100 µM	0.844 µM	> 54.7 µM	> 100 µM	> 48.1 µM	–
